Experimental data as given in patent publication US9393251B2, “Compositions and methods for treating severe thrombocytopenia related disease” (priority 2013, dated 2016).

Legend:
IL-6 and IL-2 = conditions: Muller et al. 1991; cited from earlier work
[1] = Side effects of high-dose Vitamin D in the two ITP patients; type: in vivo, human
Description: The patient's platelet count was 215,000/mm^3 six weeks after discontinuing prednisone, indicating a regimen of hydroxychloroquine at a dose of 200 mg twice a day and Vitamin D at a dose of 50,000 IU once a week was sufficient to maintain a stable count. The patient remained stable without the administration of prednisone.
In the above examples, an association between vitamin D deficiency and immune thrombocytopenia in two patients is described. Both patients had SLE and/or Sjögren's overlap with positive serology and profound life-threatening thrombocytopenia, all of which were unaffected by conventional therapies. […] After discontinuation of supplemental Vitamin D in one patient (Example 1), the 25-OH Vitamin D normalized, but the platelet count subsequently plummeted. Resuming vitamin D supplementation restored the platelet count to the previous normal range.

[2] = tested on: multiple sclerosis in the murine model; conditions: Cantorna 1996; Pedersen 2007; cited from earlier work
[3] = tested on: rheumatoid arthritis, systemic lupus erythematosus and Sjögren's syndrome; assay: Patients with rheumatoid arthritis, systemic lupus erythematosus and Sjögren's syndrome treated with the combination (Example 4); type: in vivo, human; conditions: after Vitamin D deficiency corrected with high dose Vitamin D replacement
Description: Low levels of vitamin D have been implicated in a number of autoimmune disorders, such as rheumatoid arthritis, systemic lupus erythematosus, and Sjögren's syndrome. Patients with rheumatoid arthritis, systemic lupus erythematosus and Sjögren's syndrome were treated with a combination of weekly high doses of Vitamin D (50,000 IU) and daily doses of 400 mg of hydroxychloroquine.

SMILES: C=C1/C(=C\C=C2/CCC[C@]3(C)[C@@H]([C@H](C)CCCC(C)(C)O)CC[C@@H]23)C[C@@H](O)C[C@@H]1O [Vitamin D, 1a,25-dihydroxy cholecalciferol]
- production of interleukin IL-6 and IL-2 in cell cultures (IL-6 and IL-2): reduced
- changes in calcium, phosphate, or creatinine levels ([1]; Example 1 patient): no significant changes
- untoward side effects ([1]; both patients): neither patient experienced any untoward side effect
- development of multiple sclerosis in the murine model [2]: can inhibit the development of multiple sclerosis
- response to disease modifying anti-rheumatic drugs [3]: enhanced
